This test concerns the target T1, TwinStrep-GST-HDAC10 (Homo sapiens, UniProt Q969S8).
T1 sequence (Q969S8 1-669): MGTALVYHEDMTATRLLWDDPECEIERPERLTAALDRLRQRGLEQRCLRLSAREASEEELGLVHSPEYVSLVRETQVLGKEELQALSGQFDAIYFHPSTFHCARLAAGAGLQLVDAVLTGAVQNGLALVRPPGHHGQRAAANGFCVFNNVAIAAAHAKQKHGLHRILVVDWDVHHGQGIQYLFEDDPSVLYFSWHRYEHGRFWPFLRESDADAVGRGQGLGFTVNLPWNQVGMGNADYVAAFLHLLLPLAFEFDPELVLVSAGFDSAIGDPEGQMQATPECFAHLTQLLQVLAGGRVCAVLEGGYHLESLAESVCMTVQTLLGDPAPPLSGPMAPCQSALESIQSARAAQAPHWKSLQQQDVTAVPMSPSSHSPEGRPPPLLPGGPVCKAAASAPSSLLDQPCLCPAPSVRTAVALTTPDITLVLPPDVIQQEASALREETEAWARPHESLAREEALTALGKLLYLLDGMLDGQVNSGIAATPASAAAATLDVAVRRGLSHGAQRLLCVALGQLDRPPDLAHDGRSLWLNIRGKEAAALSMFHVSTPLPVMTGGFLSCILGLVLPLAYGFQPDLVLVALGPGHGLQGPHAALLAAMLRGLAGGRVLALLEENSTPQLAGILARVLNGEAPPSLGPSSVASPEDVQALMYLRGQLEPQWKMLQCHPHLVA
Description: HDAC10 TR-FRET assay. Type of test: binding. The note with it: sheet S2e. The protocol:
To validate the inhibition of HDACs by LA and LM and elaborate on the structure-activity relationship (SAR) of enantiomers as well as oxidized versus reduced forms of the molecules, we performed enzyme activity assays for recombinant HDAC1,2,3,6,8 as well as FRET-based binding assay for recombinant HDAC10.
Inhibitors with a D300e Digital Dispenser (Tecan). After drug dosing to the premixed assay reagents in buffer, plates were shaken (800 rpm orbital shaker, 30 s), centrifuged (300g, 1 min), and incubated at RT in the dark for 90 min. TR-FRET was measured with a CLARIOstar (BMG Labtech) plate reader, equipped with TR-FRET filters.
(In general: In TR-FRET formats the signal depends on donor and acceptor labels being close together.)

“And” between values parts separate entries of the source, which are not always exact repeats. Equal entries are not always repeated.

Turning to `O=C(O)CCCCC1CCSS1` (stereo not shown) [R/S Lipoic Acid], the “HDAC10 TR-FRET relative signal” value (log conc -4.58031) is 16.6621 and 17.5526 and 13.058; the “HDAC10 TR-FRET relative signal” value (log conc -5.16059) was 24.6813 and 29.9295 and 28.3509; the “HDAC10 TR-FRET relative signal” value (log conc -5.74088) is 52.1664 and 54.0588 and 51.0514; the “HDAC10 TR-FRET relative signal” value (log conc -6.32148) was 88.5435 and 84.6455 and 96.7603; the “HDAC10 TR-FRET relative signal” value (log conc -6.92082) is 91.5597 and 91.2649 and 101.82; the “HDAC10 TR-FRET relative signal” value (log conc -7.57349) is 99.4261 and 99.6664 and 105.18. Moreover, under “log conc -8.06198”, the “HDAC10 TR-FRET relative signal” value is 106.58 and 110.725 and 95.693.
As for `O=C(O)CCCCC(S)CCS` (stereo not shown) [R/S Lipoic Acid Reduced], the “HDAC10 TR-FRET relative signal” value (log conc -5.74088) is 12.9805 and 13.6219 and 13.4323; the “HDAC10 TR-FRET relative signal” value (log conc -6.32148) was 35.3961 and 30.9531 and 27.2587; the “HDAC10 TR-FRET relative signal” value (log conc -6.92082) is 58.0202 and 63.7897 and 66.3493; the “HDAC10 TR-FRET relative signal” value (log conc -7.57349) is 84.4678 and 78.5713 and 85.276; the “HDAC10 TR-FRET relative signal” value (log conc -8.06198) was 102.777 and 109.857 and 101.86.
Regarding `NC(=O)CCCCC1CCSS1` (stereo not shown) [R/S Lipoic Amide], the “HDAC10 TR-FRET relative signal” value was 8.95 and 4.904 and 5.819 (log conc -4); 8.47 and 4.461 and 8.704 (log conc -6.32148); 45.0477 and 41.2172 and 50.7784 (log conc -7.57349); 82.499 and 87.6271 and 84.2057 (log conc -8.06198).

The record behind these values is paper PMC10272112 (Nature Communications, 2023).
